# In patent US20240199623A1 (ILDONG PHARMACEUTICAL CO., LTD., priority 2020, published 2024):
# Biological target: human wild type-CFTR (Homo sapiens, UniProt P13569)
# Assay: Cell-based YFP assay
# Design: expressed in transfected cells; host or cells: CHO-K1 (Chinese hamster ovary)
# Settings: CHO-K1 cells expressing human wild type-CFTR and YFP-H148Q/I152L; forskolin 20 μM = 100% activity; read-out: Cell-based YFP Assay (EC50) Concentration Range
# Procedure, shortened: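 CHO-K1 cells co-expressing human wild-type CFTR and YFP-H148Q/I152L halide sensor, grown 48 h at 37 °C, then in PBS. YFP quenching by I⁻ influx read at 37 °C after adding 140 mM I⁻ solution, sampled every 0.4 s for 14 s. Triplicates averaged; EC50 fitted.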
# Chain of human wild type-CFTR (P13569 whole entry): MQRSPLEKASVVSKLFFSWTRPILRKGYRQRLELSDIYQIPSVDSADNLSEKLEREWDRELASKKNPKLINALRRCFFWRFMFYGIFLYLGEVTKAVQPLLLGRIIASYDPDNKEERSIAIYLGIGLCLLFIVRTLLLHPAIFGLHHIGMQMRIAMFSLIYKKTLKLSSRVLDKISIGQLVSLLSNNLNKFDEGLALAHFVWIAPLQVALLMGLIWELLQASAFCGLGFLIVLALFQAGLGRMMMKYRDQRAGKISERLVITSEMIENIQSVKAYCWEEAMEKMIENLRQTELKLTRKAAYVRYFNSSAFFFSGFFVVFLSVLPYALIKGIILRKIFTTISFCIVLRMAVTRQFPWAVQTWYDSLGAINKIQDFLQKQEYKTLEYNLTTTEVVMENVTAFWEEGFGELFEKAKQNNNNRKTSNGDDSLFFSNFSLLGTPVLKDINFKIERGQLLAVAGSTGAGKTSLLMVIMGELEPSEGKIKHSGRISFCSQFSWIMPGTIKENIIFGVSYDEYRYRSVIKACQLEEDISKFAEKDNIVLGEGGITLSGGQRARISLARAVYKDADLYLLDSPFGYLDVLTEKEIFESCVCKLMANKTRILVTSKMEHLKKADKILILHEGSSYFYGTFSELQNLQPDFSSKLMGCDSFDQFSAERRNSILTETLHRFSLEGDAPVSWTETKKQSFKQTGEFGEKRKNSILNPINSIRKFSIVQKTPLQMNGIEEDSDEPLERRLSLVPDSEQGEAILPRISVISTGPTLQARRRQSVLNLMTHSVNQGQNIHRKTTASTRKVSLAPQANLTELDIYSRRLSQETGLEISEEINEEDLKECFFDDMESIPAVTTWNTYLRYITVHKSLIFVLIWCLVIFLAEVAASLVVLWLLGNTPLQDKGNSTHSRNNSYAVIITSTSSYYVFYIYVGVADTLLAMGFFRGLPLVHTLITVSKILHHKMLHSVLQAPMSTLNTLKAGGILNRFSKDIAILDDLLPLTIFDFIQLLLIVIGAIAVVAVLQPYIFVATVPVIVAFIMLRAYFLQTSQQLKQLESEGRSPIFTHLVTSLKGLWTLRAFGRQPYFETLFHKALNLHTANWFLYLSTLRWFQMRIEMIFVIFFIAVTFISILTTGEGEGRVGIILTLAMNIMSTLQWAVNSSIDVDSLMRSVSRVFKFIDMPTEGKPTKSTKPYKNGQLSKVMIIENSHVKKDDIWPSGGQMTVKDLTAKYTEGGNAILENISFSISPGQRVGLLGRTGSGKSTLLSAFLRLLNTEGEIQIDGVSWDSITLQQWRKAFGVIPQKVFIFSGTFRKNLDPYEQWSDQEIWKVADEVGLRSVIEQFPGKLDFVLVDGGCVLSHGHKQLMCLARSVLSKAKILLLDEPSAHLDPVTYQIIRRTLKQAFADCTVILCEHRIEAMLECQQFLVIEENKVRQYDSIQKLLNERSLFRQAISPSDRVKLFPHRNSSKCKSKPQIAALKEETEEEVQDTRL
row,SMILES,EC50 [nM]
1,"COc1ccc(-c2ccnc3cc(C(=O)Nc4ccc(C(=O)N5CCOCC5)c(OC)c4)nn23)cc1OC [Compound 217, 7-(3,4-dimethoxyphenyl)-N-(3-methoxy-4-(morpholine-4-carbonyl)phenyl)pyrazolo [1,5-a] pyrimidine-2-carboxamide]",≥ 2000
2,"CCOc1ccc(NC(=O)c2cc3nccc(-c4ccc(N(C)C)cc4)n3n2)cc1 [Compound 324, 7-(4-(dimethylamino)phenyl)-N-(4-ethoxyphenyl)pyrazolo [1,5-a]pyrimidine-2-carboxamide]",≥ 2000
3,"COc1ccc(-c2ccnc3cc(C(=O)NC45CC(C(=O)N6CCN(C)CC6)(C4)C5)nn23)cc1OC [Compound 123, 7-(3,4-dimethoxyphenyl)-N-(3-(4-methylpiperazine-1-carbonyl)bicyclo[1.1.1]pentan-1-yl) pyrazolo[1,5-a]pyrimidine-2-carboxamide]",≥ 2000
4,"O=C(Nc1ccc(N2CCOCC2)cn1)c1cc2nccc(-c3ccc(OC(F)(F)F)c(Cl)c3)n2n1 [Compound 299, 7-(3-chloro-4-(trifluoromethoxy)phenyl)-N-(5-morpholinopyridin-2-yl) pyrazolo[1,5-a]pyrimidine-2-carboxamide]",≥ 2000
5,"CCOC(=O)CNC(=O)c1cc2nccc(-c3ccc(OC)c(OC)c3)n2n1 [Compound 20, ethyl (7-(3,4-dimethoxyphenyl)pyrazolo [1,5-a]pyrimidine-2-carbonyl) glycinate]",200 to 2000
6,"COc1ccc(-c2ccnc3cc(C(=O)N4CCN(Cc5ccccc5)C(C)(C)C4)nn23)cc1OC [Compound 207, (4-benzyl-3,3-dimethylpiperazin-1-yl)(7-(3,4-dimethoxyphenyl)pyrazolo [1,5-a]pyrimidin-2-yl)methanone]",200 to 2000
7,"CCOc1ccc(NC(=O)c2cc3ncc(-c4ccc(OC)c(OC)c4)cn3n2)cc1 [Compound 254, 6-(3,4-dimethoxyphenyl)-N-(4-ethoxyphenyl)pyrazolo[1,5-a]pyrimidine-2-carboxamide]",≥ 2000
8,"CCN1CCN(c2ccc(NC(=O)c3cc4nccc(-c5ccc(OC)c(OC)c5)n4n3)cc2)CC1 [Compound 270, 7-(3,4-dimethoxyphenyl)-N-(4-(4-ethylpiperazin-1-yl)phenyl)pyrazolo[1,5-a]pyrimidine-2-carboxamide]",< 200
9,"CCOc1ccc(NC(=O)c2cc3nccc(-c4ccc(F)c(OC)c4)n3n2)cc1 [Compound 307, N-(4-ethoxyphenyl)-7-(4-fluoro-3-methoxyphenyl)pyrazolo [1,5-a]pyrimidine-2-carboxamide]",200 to 2000
10,"COc1ccc(-c2ccnc3cc(C(=O)N[C@H]4CC[C@H](C(=O)N5CCN(C)CC5)CC4)nn23)cc1OC [Compound 241, 7-(3,4-dimethoxyphenyl)-N-((1r,4r)-4-(4-methylpiperazine-1-carbonyl)cyclohexyl) pyrazolo[1,5-a]pyrimidine-2-carboxamide]",≥ 2000
11,"COc1ccc(-c2ccnc3cc(C(=O)Nc4ccc(C(=O)NCCN5CCCC5)cc4)nn23)cc1OC [Compound 223, 7-(3,4-dimethoxyphenyl)-N-(4-((2-(pyrrolidin-1-yl)ethyl)carbamoyl)phenyl)pyrazolo[1,5-a]pyrimidine-2-carboxamide]",≥ 2000
12,"COC(=O)[C@H](CCSC)NC(=O)c1ccc(NC(=O)c2cc3nccc(-c4ccc(OC)c(OC)c4)n3n2)cc1 [Compound 59, methyl (4-(7-(3,4-dimethoxyphenyl)pyrazolo [1,5-a]pyrimidine-2-carboxamido)benzoyl)-L-methioninate]",< 200
13,"COc1ccc(-c2ccnc3cc(C(=O)N4CCN(Cc5ccccc5)[C@@H](C)C4)nn23)cc1OC [Compound 206, (S)-(4-benzyl-3-methylpiperazin-1-yl) (7-(3,4-dimethoxyphenyl)pyrazolo [1,5-a]pyrimidin-2-yl)methanone]",200 to 2000
14,"COc1ccc(-c2ccnc3cc(C(=O)Nc4ccc(C(=O)N5CCC[C@H]5C(=O)O)cc4)nn23)cc1OC [Compound 50, (4-(7-(3,4-dimethoxyphenyl)pyrazolo[1,5-a]pyrimidine-2-carboxamido)benzoyl)-L-proline]",≥ 2000
15,"COc1ccc(-c2ccnc3cc(C(=O)N4CCN(c5ccccn5)CC4)nn23)cc1OC [Compound 153, (7-(3,4-dimethoxyphenyl)pyrazolo[1,5-a]pyrimidin-2-yl)(4-(pyridin-2-yl)piperazin-1-yl)methanone]",200 to 2000
16,"COC(=O)c1ccc(NC(=O)c2cc3nccc(-c4cccc(OC)c4)n3n2)cc1 [Compound 25, methyl 4-(7-(3-methoxyphenyl)pyrazolo [1,5-a]pyrimidine-2-carboxamido) benzoate]",≥ 2000
17,"COc1ccc(-c2ccnc3cc(C(=O)N[C@H]4CC[C@@H](C(=O)OCCCN5CCOCC5)CC4)nn23)cc1OC [Compound 196, 3-morpholinopropyl (1s,4s)-4-(7-(3,4-dimethoxyphenyl)pyrazolo [1,5-a]pyrimidine-2-carboxamido)cyclohexane-1-carboxylate]",200 to 2000
18,"COc1ccc(-c2ccnc3cc(C(=O)Nc4ccc(CN5CCN(C)CC5)cc4)nn23)cc1OC [Compound 243, 7-(3,4-dimethoxyphenyl)-N-(4-((4-methylpiperazin-1-yl)methyl)phenyl)pyrazolo [1,5-a]pyrimidine-2-carboxamide]",200 to 2000

row,SMILES,EC50 [nM]
1,"COc1ccc(-c2ccnc3cc(C(=O)Nc4ccc(C(=O)N5CCOCC5)nc4)nn23)cc1OC [Compound 264, 7-(3,4-dimethoxyphenyl)-N-(6-(morpholine-4-carbonyl)pyridin-3-yl) pyrazolo[1,5-a]pyrimidine-2-carboxamide]",≥ 2000
2,"COc1ccc(-c2ccnc3cc(C(=O)N4CCc5cc(C(=O)O)ccc54)nn23)cc1OC [Compound 231, 1-(7-(3,4-dimethoxyphenyl)pyrazolo[1,5-a]pyrimidine-2-carbonyl) indoline-5-carboxylic acid]",≥ 2000
3,"COc1ccc(-c2ccnc3cc(C(=O)Nc4ccc(C(=O)N5CCN(C)CC5)c(F)c4)nn23)cc1OC [Compound 175, 7-(3,4-dimethoxyphenyl)-N-(3-fluoro-4-(4-methylpiperazine-1-carbonyl)phenyl)pyrazolo [1,5-a]pyrimidine-2-carboxamide]",< 200
4,"COc1ccc(-c2ccnc3cc(C(=O)N4CCc5ccc(C(=O)N6CCN(C)CC6)cc5C4)nn23)cc1OC [Compound 237, (7-(3,4-dimethoxyphenyl)pyrazolo[1,5-a]pyrimidin-2-yl)(7-(4-methylpiperazine-1-carbonyl)-3,4-dihyroisoquinolin-2(1H)-yl)methanone]",≥ 2000
5,"COc1ccc(-c2ccnc3cc(C(=O)Nc4ccc(N5CCOCC5)cn4)nn23)c(F)c1 [Compound 297, 7-(2-fluoro-4-methoxyphenyl)-N-(5-morpholinopyridin-2-yl) pyrazolo[1,5-a]pyrimidine-2-carboxamide]",≥ 2000
6,"COC(=O)c1ccc(NC(=O)c2cc3nccc(-c4ccccc4)n3n2)cc1 [Compound 305, methyl 4-(7-phenylpyrazolo[1,5-a]pyrimidine-2-carboxamido)benzoate]",≥ 2000
7,"COc1ccc(-c2ccnc3cc(C(=O)O)nn23)cc1OC [Compound 5, 7-(3,4-dimethoxyphenyl)pyrazolo[1,5-a]pyrimidine-2-carboxylic acid]",≥ 2000
8,"COc1ccc(-c2ccnc3cc(C(=O)N[C@H]4CC[C@@H](O)CC4)nn23)cc1OC [Compound 102, 7-(3,4-dimethoxyphenyl)-N-((1S,4S)-4-hydroxycyclohexyl) pyrazolo[1,5-a]pyrimidine-2-carboxamide]",≥ 2000
9,"O=C(Nc1ccc(O)cc1)c1cc2nccc(-c3ccc(O)c(O)c3)n2n1 [Compound 38, 7-(3,4-dihydroxyphenyl)-N-(4-hydroxyphenyl)pyrazolo [1,5-a]pyrimidine-2-carboxamide]",200 to 2000
10,"COc1ccc(-c2ccnc3cc(C(=O)Nc4ccc(C(=O)OCCCN5CCCC5)cc4)nn23)cc1OC [Compound 226, 3-(pyrrolidin-1-yl)propyl 4-(7-(3,4-dimethoxyphenyl)pyrazolo [1,5-a]pyrimidine-2-carboxamido)benzoate]",≥ 2000
11,"COc1ccc(-c2ccnc3cc(C(=O)Nc4ccc(C)cn4)nn23)cc1OC [Compound 122, 7-(3,4-dimethoxyphenyl)-N-(5-methylpyridin-2-yl)pyrazolo[1,5-a] pyrimdine-2-carboxamide]",< 200
12,"CCCOc1ccc(NC(=O)c2cc3nccc(-c4ccc(OC)c(OC)c4)n3n2)cc1 [Compound 230, 7-(3,4-dimethoxyphenyl)-N-(4-propoxyphenyl)pyrazolo [1,5-a]pyrimidine-2-carboxamide]",< 200
13,"COc1ccc(-c2ccnc3cc(C(=O)N4C[C@H](C)NC[C@H]4C)nn23)cc1OC [Compound 360, (7-(3,4-dimethoxyphenyl)pyrazolo[1,5-a]pyrimidin-2-yl) ((2R,5S)-2,5-dimethylpiperazin-1-yl)methanone]",200 to 2000
14,"CCCOC(=O)[C@H]1CC[C@H](NC(=O)c2cc3nccc(-c4ccc(OC)c(OC)c4)n3n2)CC1 [Compound 331, propyl (1R,4R)-4-(7-(3,4-dimethoxyphenyl)pyrazolo [1,5-a]pyrimidine-2-carboxamido)cyclohexane-1-carboxylate]",200 to 2000
15,"CCOc1ccc(NC(=O)c2cc3nccc(-c4ccc(OC)c(OC)c4)n3n2)nc1 [Compound 314, 7-(3,4-dimethoxyphenyl)-N-(5-ethoxypyridin-2-yl)pyrazolo[1,5-a] pyrimidine-2-carboxamide]",< 200
16,"COc1ccc(-c2ccnc3cc(C(=O)N4CCN(C(=O)c5ccccc5)CC4)nn23)cc1OC [Compound 209, (4-benzoylpiperazin-1-yl)(7-(3,4-dimethoxyphenyl)pyrazolo [1,5-a]pyrimidin-2-yl)methanone]",< 200
17,"COc1ccc(-c2ccnc3cc(C(=O)N4CCNC(=O)C4)nn23)cc1OC [Compound 180, 4-(7-(3,4-dimethoxyphenyl)pyrazolo[1,5-a]pyrimidine-2-carbonyl) piperazin-2-one]",≥ 2000
